Test results taken from publication PMC9585939, “Unveiling a family of spiro-β-lactams with anti-HIV and antiplasmodial activity via phosphine-catalyzed [3+2] annulation of 6-alkylidene-penicillanates and allenoates” (Frontiers in Chemistry, 2022).

Legend:
[1] = Cellular viability assay (alamarBlue) in TZM-bl cells; type: cell-based; conditions: human, 50% cytotoxic concentration
Protocol: Before the antiviral activity screening, all spirocyclopentene-β-lactams were assayed for their in vitro cytotoxic activity (CC50) in TZM-bl cells (Table 4).
TZM-bl cells (AIDS Research and Reference Reagent Program, National Institutes of Health, United States) were cultured in complete growth medium consisting of Dulbecco’s Minimal Essential Medium (DMEM) supplemented with 10% fetal bovine serum (FBS), 100 U/ml of penicillin–streptomycin (Gibco/Invitrogen, United States), 1 mM of sodium pyruvate (Gibco/Invitrogen, United States), 2 mM of L-glutamine (Gibco/Invitrogen, United States), and 1 mM of non-essential amino acids (Gibco/Invitrogen, United States). Cell cultures were maintained at 37°C in 5% CO2.
The in vitro cytotoxicity of test compounds was evaluated in TZM-bl cells using alamarBlue cell viability reagent (Life Technologies, United States), according to the instructions of the manufacturer. The cells were cultured in the presence and absence of serial-fold dilutions of the test compounds. Each dilution of each compound was performed in triplicate wells. Medium controls (only growth medium), cell controls (cells without test compound), and cytotoxicity controls (a compound that kills cells) were employed in each assay.

[2] = test system: HIV-1 SG3.1; experiment: microbe, parasite or virus in culture; conditions: for IC50 / IC90 / inhibition at 25 µg/mL: Human immunodeficiency virus 1, TZM-bl; for IC50 / IC90: 48 h; for IC50: read-out: IC50 HIV-1, TZM-bl cells, 48 h; for IC90: read-out: IC90 HIV-1; for inhibition at 25 µg/mL: read-out: MPI (%) 25 μg/mL; for Therapeutic index (CC50/IC50): HIV-1, CC50 in TZM-bl cells
Source text: (§1) The HIV-1 SG3.1 is a reference subtype B strain that uses the CXCR4 coreceptor. It was obtained by transfection of HEK293T cells with pSG3.1 plasmid using jetPRIME transfection reagent (Polyplus-transfection SA, Illkirch, France), according to the instructions of the manufacturer.
(§2) Briefly, TZM-bl cells were infected with 200 TCID50 of HIV-1 or HIV-2 in the presence of serial-fold dilutions of the compounds in the growth medium, supplemented with diethylaminoethyl-dextran (DEAE-dextran). After 48 h of infection, luciferase expression was quantified with Pierce Firefly Luc One-Step Glow Assay Kit (ThermoFisher Scientific, Rockford, United States), according to the instructions of the manufacturer. For each compound dilution, the assay was set up in triplicate wells. Virus controls, cell controls, and inhibitors controls (drugs with a known action against each virus) were employed.

[3] = test system: HIV-2 03PTHCC19; experiment: microbe, parasite or virus in culture; conditions: Human immunodeficiency virus 2, TZM-bl; for IC50 / IC90: 48 h; for IC50: read-out: IC50 HIV-2; for IC90: read-out: IC90 HIV-2; for inhibition at 25 µg/mL: read-out: MPI (%) 25 μg/mL
Source text: as §1, §2

[4] = test system: P. berghei hepatic stage; experiment: In vitro hepatic infection of Huh7 cells by luciferase-expressing P. berghei; type: cell-based; conditions: Plasmodium berghei, Huh-7; hepatic stage, Huh7 cells, 48 h after infection
Protocol: The inhibitory activity of test compounds on in vitro hepatic infection by P. berghei was determined by comparing the parasite load in compound- and solvent-treated P. berghei-infected Huh7 cells. Infection load was assessed by measurement of luminescence intensity in Huh7 cells infected, with a firefly luciferase-expressing P. berghei line, as previously described ([Ploemen et al., 2009]; [António et al., 2017]). Briefly, Huh7 cells were seeded in 96-well plates (1.0 × 10^4 cells per well) the day before drug treatment and infection. The medium was replaced by another medium containing the appropriate concentration of each compound approximately 1 h prior to infection with sporozoites freshly obtained through disruption of salivary glands of infected female Anopheles stephensi mosquitoes. Sporozoite addition was followed by centrifugation at 1,800 g for 5 min. Parasite infection load was measured 48 h after infection by a bioluminescence assay (Biotium). Cell confluence, a surrogate measure of compound toxicity to Huh7 cells, was assessed by fluorescence measurements using the alamarBlue assay, according to the manufacturer’s instructions. […] Specifically, non-linear regression analysis was employed to fit the normalized results of the dose-response curves, and IC50 values were determined using GraphPad Prism 8.0 (GraphPad Software, La Jolla, California, United States).

SMILES	CC50 [1] [nM]	IC50 [2] [nM]	IC90 [2] [nM]	inhibition at 25 µg/mL [2] [%]	IC50 [3] [nM]	IC90 [3] [nM]	inhibition at 25 µg/mL [3] [%]	IC50 [4] [nM]	melting point [°C]	Therapeutic index (CC50/IC50) [2]
CC1(C)SC2N(C(=O)C23CC=C(C(=O)OCC=Cc2ccccc2)C3C(=O)c2ccccc2)C1C(=O)OC(c1ccccc1)c1ccccc1 (stereo not drawn) [Compound 9n, (1’R,2’R)-Benzhydryl spiro[(2-benzoyl-3-cinnamyloxycarbonylcyclopent-3-ene)-1’,6-penicillanate]]	62300	17	46	100	16	64	100	1580 ± 191	67.8 to 69.4	–
CC1(C)SC2N(C(=O)C23CC=C(C(=O)OCc2ccccc2)C3C(=O)c2ccc(Br)cc2)C1C(=O)OC(c1ccccc1)c1ccccc1 (stereo not drawn) [Compound 12c, (1’R,2’R)-Benzhydryl spiro[(2-(4-bromobenzoyl)-3-benzyloxycarbonylcyclopent-3-ene)-1’,6-penicillanate]]	55000	50	116	87	93	159	100	1000 to 10000	156.5 to 158.5	–
CC1(C)SC2N(C(=O)C23CC=C(C(=O)OCc2ccccc2)C3C(=O)c2ccco2)C1C(=O)OC(c1ccccc1)c1ccccc1 (stereo not drawn) [Compound 12i, (1’R,2’R)-Benzhydryl spiro[(2-furoyl-3-benzyloxycarbonylcyclopent-3-ene)-1’,6-penicillanate]]	78300	140	223	87	–	–	–	–	76.5 to 78.5	559.29
CC1(C)SC2N(C(=O)C23C(C(=O)OCc2ccccc2)=CCC3C(=O)c2ccc(F)cc2)C1C(=O)OC(c1ccccc1)c1ccccc1 (stereo not drawn) [Compound 13a, (1′R,2′R)-benzhydryl spiro[(2-(4-fluorobenzoyl)-5-benzyloxycarbonylcyclopent-4-ene)-1′,6-penicillanate]]	64800	–	–	0	–	–	–	–	73.9 to 75.9	–
CC1(C)SC2N(C(=O)C23C(C(=O)OCc2ccccc2)=CCC3C(=O)c2ccc(Cl)cc2)C1C(=O)OC(c1ccccc1)c1ccccc1 (stereo not drawn) [Compound 13b, (1’R,2’R)-Benzhydryl spiro[(2-(4-chlorobenzoyl)-5-benzyloxycarbonylcyclopent-4-ene)-1’,6-penicillanate]]	63700	–	–	0	–	–	–	–	116.3 to 118.3	–
CC1(C)SC2N(C(=O)C23C(C(=O)OCc2ccccc2)=CCC3C(=O)c2ccc(Br)cc2)C1C(=O)OC(c1ccccc1)c1ccccc1 (stereo not drawn) [Compound 13c, (1’R,2’R)-Benzhydryl spiro[(2-(4-bromobenzoyl)-5-benzyloxycarbonylcyclopent-4-ene)-1’,6-penicillanate]]	50600	–	–	0	–	–	–	–	115.9 to 117.9	–
CC1(C)SC2N(C(=O)C23C(C(=O)OCc2ccccc2)=CCC3C(=O)c2ccc([N+](=O)[O-])cc2)C1C(=O)OC(c1ccccc1)c1ccccc1 (stereo not drawn) [Compound 13d, (1’R,2’R)-Benzhydryl spiro[(2-(4-nitrobenzoyl)-5-benzyloxycarbonylcyclopent-4-ene)-1’,6-penicillanate]]	73800	–	–	0	–	–	–	–	122.7 to 124.7	–
CC1(C)SC2N(C(=O)C23C(C(=O)OCc2ccccc2)=CCC3C(=O)c2ccc(C(F)(F)F)cc2)C1C(=O)OC(c1ccccc1)c1ccccc1 (stereo not drawn) [Compound 13e, (1’R,2’R)-Benzhydryl spiro[(2-(4-trifluoromethylbenzoyl)-5-benzyloxycarbonylcyclopent-4-ene)-1’,6-penicillanate]]	54700	–	–	0	–	–	–	–	141.1 to 143.1	–
CC1(C)SC2N(C(=O)C23C(C(=O)OCc2ccccc2)=CCC3C(=O)c2cc(F)cc(F)c2)C1C(=O)OC(c1ccccc1)c1ccccc1 (stereo not drawn) [Compound 13f, (1’R,2’R)-Benzhydryl spiro[(2-(3,5-difluorobenzoyl)-5-benzyloxycarbonylcyclopent-4-ene)-1’,6-penicillanate]]	58800	–	–	0	–	–	–	–	134.8 to 136.8	–
CC1(C)SC2N(C(=O)C23C(C(=O)OCc2ccccc2)=CCC3C(=O)c2ccc3ccccc3c2)C1C(=O)OC(c1ccccc1)c1ccccc1 (stereo not drawn) [Compound 13h, (1’R,2’R)-Benzhydryl spiro[(2-naphthoyl-5-benzyloxycarbonylcyclopent-4-ene)-1’,6-penicillanate]]	56200	–	–	0	–	–	–	–	90.8 to 92.8	–
CC1(C)SC2N(C(=O)C23C(C(=O)OCc2ccccc2)=CCC3C(=O)c2ccco2)C1C(=O)OC(c1ccccc1)c1ccccc1 (stereo not drawn) [Compound 13i, (1’R,2’R)-Benzhydryl spiro[(2-furoyl-5-benzyloxycarbonylcyclopent-4-ene)-1’,6-penicillanate]]	61200	–	–	0	–	–	–	–	112.8 to 114.8	–
Cc1ccc(COC(=O)C2=CCC3(C(=O)N4C(C(=O)OC(c5ccccc5)c5ccccc5)C(C)(C)SC43)C2C(=O)c2ccc(Cl)cc2)cc1 (stereo not drawn) [Compound 14e, (1’R,2’R)-Benzhydryl spiro[(2-(4-chlorobenzoyl)-3-(4-methylbenzyloxycarbonyl)cyclopent-3-ene)-1’,6-penicillanate]]	100000	211	720	94	–	–	–	–	79.5 to 81.5	474.41
CC1(C)SC2N(C(=O)C23CC=C(C(=O)OCC=Cc2ccccc2)C3C(=O)c2ccc(Cl)cc2)C1C(=O)OC(c1ccccc1)c1ccccc1 (stereo not drawn) [Compound 14f, (1’R,2’R)-Benzhydryl spiro[(2-(4-chlorobenzoyl)-3-cinnamyloxycarbonylcyclopent-3-ene)-1’,6-penicillanate]]	87500	67	198	97	–	–	–	–	81.7 to 83.7	1305.67
Cc1ccc(COC(=O)C2=CCC3(C(=O)N4C(C(=O)OC(c5ccccc5)c5ccccc5)C(C)(C)SC43)C2C(=O)c2ccc(Br)cc2)cc1 (stereo not drawn) [Compound 14h, (1’R,2’R)-Benzhydryl spiro[(2-(4-bromobenzoyl)-3-(4-methylbenzyloxycarbonyl)cyclopent-3-ene)-1’,6-penicillanate]]	72100	111	297	93	–	–	–	–	74.9 to 76.9	649.73
CC1(C)SC2N(C(=O)C23CC=C(C(=O)OCC=Cc2ccccc2)C3C(=O)c2ccc(Br)cc2)C1C(=O)OC(c1ccccc1)c1ccccc1 (stereo not drawn) [Compound 14i, (1’R,2’R)-Benzhydryl spiro[(2-(4-bromobenzoyl)-3-cinnamyloxycarbonylcyclopent-3-ene)-1’,6-penicillanate]]	66900	143	305	95	–	–	–	–	89.1 to 91.1	467.62
